Measurements taken from patent US20120035247A1, “RNA Interference Mediated Inhibition of Signal Transducer and Activator of Transcription 6 (STAT6) Gene Expression Using Short Interfering Nucleic Acid (siNA)” (Merck Sharp & Dohme Corp., priority 2009, published 2012).
[invAb] = inverted abasic unit; m = 2'-O-methyl; r = 2'-OH (RNA); f = 2'-fluoro

Columns and labels:
Format in all cases: cell-based
STAT6 mRNA [1] = experiment: STAT6 siNA screen and dose response in human A549 cells, STAT6 mRNA by quantitative RT-PCR (Taqman); conditions: for % KD STAT6 mRNA 10 nM / IC50: Table 4, human A549 cells; for % KD STAT6 mRNA 10 nM / IC50 / % KD STAT6: mean ± S.D.; for % KD STAT6 10 nM: Table 5, A549 cells, three experiments, mean ± standard deviation; for % KD STAT6: human A549 cells, 10 nM siNA, 24 hrs, normalized to GAPDH and non-targeting control, n = 3
How it was run: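 A549 cells were transfected with siNA–RNAiMax complexes at a final 10 nM siNA and incubated 24 h without a medium change. STAT6 mRNA was measured by TaqMan qRT-PCR on cell lysates. Knock-down was calculated by the comparative Ct (ΔΔCt) method against the non-targeting control siNA, with relative expression taken as 2^−ΔΔCt.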

STAT6 mRNA [2] = experiment: STAT6 siNA screen in mouse NIH 3T3 cells, STAT6 mRNA by quantitative RT-PCR (Taqman); conditions: mouse NIH3T3 cells, 10 nM siNA, 24 hrs, normalized to GAPDH and non-targeting control, n = 2
How it was run: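 NIH 3T3 cells, 5000/well, transfected after 24 h with siNA (10 nM final) via RNAiMax and harvested 24 h later. STAT6 mRNA quantified by TaqMan RT-qPCR with GAPDH; knock-down by comparative Ct (2^−ΔΔCt) against non-targeting control siNA.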

[3] = tested on: human STAT4 mRNA transcript; experiment: STAT4 specificity screen in human A549 cells, STAT4 mRNA by quantitative RT-PCR; conditions: three experiments, mean ± standard deviation
Procedure: A549 (human; ATCC cat# CCL-185): Cells were cultured at 37° C. in the presence of 5% CO2 and grown in Ham's F12K medium with 2 mM L-glutamine adjusted to contain 1.5 g/L sodium bicarbonate and supplemented with fetal bovine serum at a final concentration of 10%, 100 μg/mL of streptomycin, and 100 U/mL penicillin.
A series of probes and primers were used to detect the various mRNA transcripts of the genes of 13-Actin (human cell line only), and of STATE and GAPDH in mouse and human cell lines. All Taqman probes and primers for the experiments here-in described were supplied as pre-validated sets by Applied Biosystems, Inc. (see Table 2).
The assays were performed on an ABI 7900 instrument, according to the manufacturer's instructions. A TaqMan Gene Expression Master Mix (provided in the Cells-to-CTT™, Applied Biosystems, Cat #4399002) was used. The PCR reactions were carried out at 50° C. for 2 min, 95° C. for 20 min followed by 40 cycles at 95° C. for 15 secs and 60° C. for 1 min.
The expression level of the gene of interest and % knock-down was calculated using Comparative Ct method:
ΔΔCt=ΔCt(Target siNA)−ΔCt(NTC)
Relative expression level=2^−ΔΔCt
The non-targeting control siNA was, unless otherwise indicated, chosen as the value against which to calculate the % knock-down, because it is the most relevant control.
The siNAs from Table 4 were tested in human A549 cell line at a lower concentration (1 nM versus the original screening concentration of 10 nM) to determine the effect of the STATE siRNAs on the mRNA transcript of human STAT4.

Substance | % KD STAT6 mRNA 10 nM (STAT6 mRNA [1]) | IC50 (STAT6 mRNA [1]) [pM] | % KD STAT6 10 nM (STAT6 mRNA [1]) [%] | % KD STAT6 (STAT6 mRNA [1]) [%] | % KD STAT6 (STAT6 mRNA [2]) [%] | % KD STAT4 1 nM [3] [%]
29999-DC: STAT6 siNA duplex; sense SEQ ID NO: 62, antisense SEQ ID NO: 63; target GUUCGAUUCCUGUUGGGCU, site 1148 (sense GUUCGAUUCCUGUUGGGCUTT; antisense AGCCCAACAGGAAUCGAACUU; sense: DNA at AGT, 2'-fluoro at CU, [invAb] at 5' end, 3' end, backbone not given here; antisense: sugars from the 5' end rrrffmmfmmmmmffmmmfmm, backbone not given here) [STAT6 siNA duplex; target GUUCGAUUCCUGUUGGGCU, site 1148] | 72.8 ± 1^ % | 48.7 ± 21.7 | 72.8 ± 1.0 | 72.8 ± 1 | 53.4 ± 3.1 | −17.4 ± 20.9
30005-DC: STAT6 siNA duplex; sense SEQ ID NO: 74, antisense SEQ ID NO: 75; target CUGCACAGCUUGAUAGAAA, site 755 (sense CUGCACAGCUUGAUAGAAATT; antisense UUUCUAUCAAGCUGUGCAGUU; sense: DNA at AGT, 2'-fluoro at CU, [invAb] at 5' end, 3' end, backbone not given here; antisense: sugars from the 5' end rrrffmffmmmffmfmfmmmm, backbone not given here) [STAT6 siNA duplex; target CUGCACAGCUUGAUAGAAA, site 755] | 70 ± 8.9% | 23.2 ± 10.3 | 70.0 ± 8.9 | 70 ± 8.9 | −8 ± 0.5 | 13.2 ± 14.4
30021-DC: STAT6 siNA duplex; sense SEQ ID NO: 106, antisense SEQ ID NO: 107; target GUCAAUGGUCCUGGUCCAA, site 793 (sense GUCAAUGGUCCUGGUCCAATT; antisense UUGGACCAGGACCAUUGACUU; sense: DNA at AGT, 2'-fluoro at CU, [invAb] at 5' end, 3' end, backbone not given here; antisense: sugars from the 5' end rrrmmffmmmmffmffmmfmm, backbone not given here) [STAT6 siNA duplex; target GUCAAUGGUCCUGGUCCAA, site 793] |  |  |  | 17.2 ± 7.5 | −7 ± 7.2 | 
30022-DC: STAT6 siNA duplex; sense SEQ ID NO: 108, antisense SEQ ID NO: 109; target CCAAGACCCGGGCAUCGCU, site 1037 (sense CCAAGACCCGGGCAUCGCUTT; antisense AGCGAUGCCCGGGUCUUGGUU; sense: DNA at AGT, 2'-fluoro at CU, [invAb] at 5' end, 3' end, backbone not given here; antisense: chemistry not given here; in the key) [STAT6 siNA duplex; target …UCGCU, site 1037] |  |  |  | 56.1 ± 8.3 | 51.5 ± 0 | 
30023-DC: STAT6 siNA duplex; sense SEQ ID NO: 110, antisense SEQ ID NO: 111; target CACCUUAUGAUCUUGGAAU, site 2288 (sense CACCUUAUGAUCUUGGAAUTT; antisense AUUCCAAGAUCAUAAGGUGUU; sense: DNA at AGT, 2'-fluoro at CU, [invAb] at 5' end, 3' end, backbone not given here; antisense: sugars from the 5' end rrrffmmmmffmfmmmmfmmm, backbone not given here) [STAT6 siNA duplex; target CACCUUAUGAUCUUGGAAU, site 2288] |  |  |  | 15.3 ± 05.4 | −0.8 ± 3.8 | 
30024-DC: STAT6 siNA duplex; sense SEQ ID NO: 112, antisense SEQ ID NO: 113; target CGCUGUCUCCGGAGCUACU, site 1850 (sense CGCUGUCUCCGGAGCUACUTT; antisense AGUAGCUCCGGAGACAGCGUU; sense: DNA at AGT, 2'-fluoro at CU, [invAb] at 5' end, 3' end, backbone not given here; antisense: sugars from the 5' end rrrmmffffmmmmmfmmfmmm, backbone not given here) [STAT6 siNA duplex; target CGCUGUCUCCGGAGCUACU, site 1850] |  |  |  | 38.9 ± 11.2 | 19.5 ± 5.6 | 
30025-DC: STAT6 siNA duplex; sense SEQ ID NO: 114, antisense SEQ ID NO: 115; target AACGCUGUCUCCGGAGCUA, site 1848 (sense AACGCUGUCUCCGGAGCUATT; antisense UAGCUCCGGAGACAGCGUUUU; sense: DNA at AGT, 2'-fluoro at CU, [invAb] at 5' end, 3' end, backbone not given here; antisense: sugars from the 5' end rrrffffmmmmmfmmfmffmm, backbone not given here) [STAT6 siNA duplex; target AACGCUGUCUCCGGAGCUA, site 1848] |  |  |  | 48.1 ± 7.5 | 34.2 ± 1.8 | 
30026-DC: STAT6 siNA duplex; sense SEQ ID NO: 116, antisense SEQ ID NO: 117; target GCAGUGGUUUGAUGGUGUC, site 1816 (sense GCAGUGGUUUGAUGGUGUCTT; antisense GACACCAUCAAACCACUGCUU; sense: DNA at AGT, 2'-fluoro at CU, [invAb] at 5' end, 3' end, backbone not given here; antisense: sugars from the 5' end rrrmffmffmmmffmffmfmm, backbone not given here) [STAT6 siNA duplex; target GCAGUGGUUUGAUGGUGUC, site 1816] |  |  |  | 58.4 ± 8.1 | 59.8 ± 1.1 | 
30027-DC: STAT6 siNA duplex; sense SEQ ID NO: 118, antisense SEQ ID NO: 119; target AAGACCCGGGCAUCGCUGA, site 1025 (sense AAGACCCGGGCAUCGCUGATT; antisense UCAGCGAUGCCCGGGUCUUUU; sense: DNA at AGT, 2'-fluoro at CU, [invAb] at 5' end, 3' end, backbone not given here; antisense: sugars from the 5' end rrrmfmmfmfffmmmffffmm, backbone not given here) [STAT6 siNA duplex; target …UCGCUGA, site 1025] |  |  |  | −0.8 ± 12.4 | −3.3 ± 3.1 | 
30028-DC: STAT6 siNA duplex; sense SEQ ID NO: 120, antisense SEQ ID NO: 121; target CUGCCAAAGACCUGUCCAU, site 2049 (sense CUGCCAAAGACCUGUCCAUTT; antisense AUGGACAGGUCUUUGGCAGUU; sense: DNA at AGT, 2'-fluoro at CU, [invAb] at 5' end, 3' end, backbone not given here; antisense: sugars from the 5' end rrrmmfmmmfffffmmfmmmm, backbone not given here) [STAT6 siNA duplex; target CU…UGUCCAU, site 2049] |  |  |  | 29.5 ± 6.4 | 31.1 ± 4.3 | 
30029-DC: STAT6 siNA duplex; sense SEQ ID NO: 122, antisense SEQ ID NO: 123; target GUGUCCUGGACCUCACCAA, site 1830 (sense GUGUCCUGGACCUCACCAATT; antisense UUGGUGAGGUCCAGGACACUU; sense: DNA at AGT, 2'-fluoro at CU, [invAb] at 5' end, 3' end, backbone not given here; antisense: sugars from the 5' end rrrmfmmmmfffmmmmfmfmm, backbone not given here) [STAT6 siNA duplex; target GUGUCCUGGACCUCACCAA, site 1830] |  |  |  | 13.2 ± 7.8 | −17.5 ± 12.8 | 
